Here are results for three compounds from patent US4021557A, “11-Aminoalkyl-pyridobenzodiazepinones and salts thereof” (Boehringer Ingelheim GmbH, priority 1974, dated 1977).

Series [1] relates to acetylcholine-induced bronchospasm. Put plainly: Antagonism to acetylcholine-provoked bronchospasm in anesthetized guinea pigs (Konzett and Rossler), i.v.; antiasthmatic / bronchospasmolytic activity. Type of series: in vivo. To be noted: guinea pig; for ED50: Cavia porcellus, iv, 20γ acetylcholine per kg i.v., graphic extrapolation, read-out: Bronchospasmolytic ED50 against acetylcholine-induced bronchospasm. As to the method:
The antiasthmatic activity was tested as the antagonism to bronchospasm provoked by intravenous administration of 20γ of acetylcholine per kg body weight in anesthetized guinea pigs (according to method of Konzett and Rossler). From the average percentage decrease of the bronchospasm produced by administering various doses of the compounds of the […] invention an ED50 was determined by graphic extrapolation. The compounds were administered intravenously.

A short description of series [2]: Acute toxicity after i.v. administration in NMRI-mice (Litchfield and Wilcoxon). The conditions noted are these: mouse, in vivo, iv, both sexes, deaths within 14 days, read-out: LD50 in the mouse after i.v. application. As to the method:
The acute toxicity was determined with NMRI-mice of both sexes (body weight 20 gm) after intravenous administration of the compound. 0.1 ml of a 0.9% sodium chloride solution per 10gm of animal was used as the vehicle.

The next series has as its system heart rate. The series is described as follows: Effect on heart rate of the anesthetized cat after intravenous administration. To be noted: i.v.; for ED10 (dose leading to a 10% alteration of the heart rate) / ED25 (dose leading to a 25% alteration of the heart rate): graphic extrapolation; for type of the reaction (heart rate): tested dosage range 250 - 4,000 γ/kg (A 12.5 - 16,000; W 125 - 4,000). The series is classed as in vivo. Set-up: key to type of the reaction (heart rate): --: decrease in heart rate. The method, then:
The effect on the heart rate was tested on cats of both sexes (body weight between 2.3 and 3.5 kg) under chloralose-urethane anesthesia. The heart rate was continuously registered by means of a Grass-tachograph 7P4, controlled by the R-wave of the electrocardiogram. The test compound was injected through a catheter introduced into the vena femoralis.

The test system of another series is quantity of secretion. Put plainly: Expectorant (secretolytic) activity in anesthetized guinea pigs (Perry et al, modified by Engelhorn et al), oral. The series is classed as in vivo. To be noted: guinea pig, over 2 hours. The method, then:
The expectorant activity was ascertained by the method of Perry et al, J. Pharmcol. exp. Therap. 73, 65 (1941), as modified by Engelhorn et al, Arzneim. Forsch. 21, 1045 (1971), on male guinea pigs (body weight from 450 to 550 gm), which has been anesthetized by intraperitoneal injection of a 25% urethane solution (1.0 gm/kg). The test compound was administered orally at the indicated dosage levels, each in 2 ml of distilled water, by means of an esophageal tube. 5 tests per dose. The increase in secretion was calculated from the quantity of fluid secreted over a period of 2 hours after administration of the test compound, as compared to the quantity secreted without administration of the test compound.

What is called ED50 is the midpoint of the dose-response relation. The term LD50 denotes the dose expected to kill half of the subjects tested. `CCN(CC)CCCN1c2ccccc2N(C)C(=O)c2cccnc21.Cl` [A, 11-(3'-diethylamino-n-propyl)-6,11-dihydro-6-methyl-5H-pyrido[2,3-b][1,5]benzodiazepin-5-one hydrochloride]: in series [1], the ED50 was 0.031 mg/kg and the “Average duration of effective action in the ED50 range” value (from here on “Average duration of effective action”) is greater than 130 min. Moreover, the LD50 at 336 h in series [2] was determined as 62.3 mg/kg. Further, in the series on heart rate, the “ED10 (dose leading to a 10% alteration of the heart rate)” value is listed as 2,100 γ/kg, the “ED25 (dose leading to a 25% alteration of the heart rate)” value is > 16,000 γ/kg and the “type of the reaction (heart rate)” value is recorded as “--”. In addition, in the series on quantity of secretion (dose 0.5 γ/kg), the “percent change in quantity of secretion (increase)” value (“percent change … (increase)” for short) turned out to be 80%. Besides, in the series with quantity of secretion (dose 5 γ/kg), the “percent change … (increase)” value is 114%.

In the case of `CC(C)N(CCCN1c2ccccc2N(C)C(=O)c2cccnc21)C(C)C.Cl` [J, 6,11-dihydro-11-(3'-diisopropylamino-n-propyl)-6-methyl-5H-pyrido[2,3-b][1,5]benzodiazepin-5one hydrochloride], in series [1], the ED50 was 0.0165 mg/kg and the “Average duration of effective action” value is 50 min. The LD50 at 336 h in series [2] came out at 22.6 mg/kg. In the series with heart rate, the “ED10 (dose leading to a 10% alteration of the heart rate)” value is 1,950 γ/kg, the “ED25 (dose leading to a 25% alteration of the heart rate)” value is recorded as > 4,000 γ/kg and the “type of the reaction (heart rate)” value is on record as “--”. The “percent change … (increase)” value with quantity of secretion (dose 0.5 γ/kg) was 108%.

Turning to `CCN(CCCN1c2ccccc2N(C)C(=O)c2cccnc21)C(C)C.Cl` [K, 11-[3'-(n-ethyl-N-isopropyl-amino)-n-propyl]-6,11-dihydro-6-methyl-5H-pyrido[2,3-b][1,5]benzodiazepin-5-one hydrochloride], in series [1], the ED50 was 0.02 mg/kg and the “Average duration of effective action” value is greater than 80 min. For the same compound, the LD50 at 336 h in series [2] turned out to be 30 mg/kg. Further, in the series with heart rate, the “ED10 (dose leading to a 10% alteration of the heart rate)” value is 1,350 γ/kg, the “ED25 (dose leading to a 25% alteration of the heart rate)” value is reported as > 4,000 γ/kg and the “type of the reaction (heart rate)” value is listed as “--”. Besides, the “percent change … (increase)” value in the series on quantity of secretion (dose 0.5 γ/kg) came to 113%.
